# Test results as given in patent US9708338B2, “Aromatic heterocyclylamine derivative having TRPV4-inhibiting activity” (Shionogi & Co., Ltd., priority 2013, dated 2017).
# Key:
# [1] = biological target: T1, human TRPV4 (Homo sapiens, UniProt Q9HBA0); test: Test Example 1 Measurement of TRPV4 inhibitory activity (IC50 value); type: cell-based; details: CHO-K1 cells stably expressing human TRPV4; Fluo 4-AM, FLIPR TETRA; final 1 μmol/L 4α-PDD
# T1 construct: expressed in transfected cells; host or cells: CHO-K1
# Protocol: (§1) For each compound, TRPV4 inhibitory activity was measured using cells. (Method) TRPV4 inhibitory activity of the compound was evaluated in accordance with the following procedure.
# (§2) (1) The TRPV4 inhibitory activity was measured using CHO-K1 cells stably expressing human TRPV4.
# (2) In the day before the experimental day, frozen cell were thawed and washed with the culture medium (MEM-α, 10% FBS, 2 mmol/L GlutaMax, 50 unit Penicillin, 50 μg/mL Streptomycin, 20 mmol/L HEPES). Then cells were suspended in the culture medium.
# (3) The 384-well plates which hTRPV4/CHO cells were seeded at densities of 4000 cells/well in the culture medium and cultured in a CO2 incubator in the presence of 5% CO2 at 37° C. for overnight was used as assay plates.
# (4) The assay plate was washed with assay buffer (Hanks, 20 mmol/L HEPES, 2.5 mmol/L probenecid, pH 7.4), and the buffer were remained at 20 μL/well.
# (5) 10 μl of dye loading buffer (9 μmol/L Fluo 4-AM, 0.09% Pluronic F-127/assay buffer) was added to each well, then the assay plate was incubated in a CO2 incubator in the presence of 5% CO2 at 37° C. for one hour (final 3 μmol/L Fluo4-AM).
# (6) The assay plate was washed with the assay buffer, and the buffers were remained at 20 μL/well. Then the assay plate was incubated for 10 min at room temperature.
# (7) 20 μL/well of diluted compound solution was dispensed to each well in the compound plate, and mixed with built-in Pipette and Mixer of the Fluorescence analysis system FLIPR TETRA (Molecular devices).
# (8) After incubation for 5 min, 20 μL/well of 4α-PDD solution were applied to each well of assay plate and mixed with the FLIPR TETRA (final 1 μmol/L 4α-PDD).
# (9) The fluorescent intensity was measured with FLIPR TETRA system for 5 min from the point of time addition the compound solution, at Ex 470-495 nm, Em 515-575 nm wavelength.
# (§3) In addition, TRPV4 inhibitory activity (IC50 value) of a compound was evaluated according to the following procedure.
# (10) In the presence of the compound, the difference between maximal and minimal of fluorescent intensity value for 5 min from just before addition of 4α-PDD solution was calculated, and it was referred as Max−Min value. Max−Min value of the compound A at 1 μmol/L was defined as 100% inhibitory activity, Max−Min value in the absence of the compound was defined as 0% inhibitory activity. The TRPV4 inhibitory activity of the compound was calculated by the following formula. Inhibition ratio=(1−(Max−Min value of the compound−100% inhibitory activity)/(0% inhibitory activity−100% inhibitory activity))×100
# Herein, the compound A is the compound I-186 described in PCT/JP2013/058722.
# (11) Inhibitory activity was calculated at 10 points with three fold serial dilution, in the final concentration of the compound from 10 μmol/L to 0.5 nmol/L, the IC50 value (nmol/L) was calculated by logistic approximation method.
# [2] = Test Example 7 Metabolism stability test; type: in vitro ADME; details: 0.5 μmol/L of test compound, human liver microsomes 0.5 mg protein/mL, 37° C.
# Protocol: Using commercially available pooled human hepatic microsomes, a compound of the present invention was reacted for a constant time, and a remaining rate was calculated by comparing a reacted sample and an unreacted sample, thereby, a degree of metabolism in liver was assessed.
# A reaction was performed (oxidative reaction) at 37° C. for 0 minute or 30 minutes in the presence of 1 mmol/L NADPH in 0.2 mL of a buffer (50 mmol/L Tris-HCl pH 7.4, 150 mmol/L potassium chloride, 10 mmol/L magnesium chloride) containing 0.5 mg protein/mL of human liver microsomes. After the reaction, 50 μL of the reaction solution was added to 100 μL of a methanol/acetonitrile=1/1 (v/v), mixed and centrifuged at 3000 rpm for 15 minutes. The compound of the present invention in the supernatant was quantified by LC/MS/MS, and a remaining amount of the compound of the present invention after the reaction was calculated, letting a compound amount at 0 minute reaction time to be 100%. Hydrolysis reaction was performed in the absence of NADPH and glucuronidation reaction was in the presence of 5 mmol/L UDP-glucuronic acid in place of NADPH, followed by similar operations. (Result) % inhibition was shown at 0.5 μmol/L of test compound.
# [3] = biological target: T2, human ether-a-go-go related gene (hERG) channel (Homo sapiens, UniProt Q12809); test: Test Example 8 hERG test; type: cell-based; details: 1 μmol/L of test compound; CHO cells expressing hERG; whole cell patch clamp (QPatch)
# T2 construct: expressed in transfected cells; host or cells: CHO
# Description: For the purpose of assessing risk of an electrocardiogram QT interval prolongation of the compound of the present invention, effects of the compound of the present invention on delayed rectifier K^+ current (IKr), which plays an important role in the ventricular repolarization process, was studied using CHO cells expressing human ether-a-go-go related gene (hERG) channel.
# After a cell was retained at a membrane potential of −80 mV by whole cell patch clamp method using an automated patch clamp system (QPatch; Sophion Bioscience A/S), IKr induced by depolarization pulse stimulation at +20 mV for 2 seconds and, further, repolarization pulse stimulation at −50 mV for 2 seconds, was recorded. […] From the recording IKr, an absolute value of the tail peak current was measured based on the current value at the resting membrane potential using analysis software (Falster Patch; Sophion Bioscience A/S). Further, the % inhibition relative to the tail peak current before application of the compound of the present invention was calculated, and compared with the vehicle-applied group (0.1% dimethyl sulfoxide solution) to assess influence of the compound of the present invention on IKr. […]
# [4] = biological target: T3, CYP3A4 (Homo sapiens, UniProt P08684); test: Test Example 3 CYP3A4 fluorescent MBI test; type: in vitro ADME; details: CYP3A4 expressed in Escherichia coli; substrate 7-BFC; pre-reaction time 0 or 30 minutes
# T3 construct: host or cells: Escherichia coli
# Protocol: The CYP3A4 fluorescent MBI test is a test of investigating enhancement of CYP3A4 inhibition of a compound of the present invention by a metabolism reaction, and the test was performed using, as CYP3A4 enzyme expressed in Escherichia coli and employing, as an index, a reaction in which 7-benzyloxytrifluoromethylchmarin (7-BFC) is debenzylated by the CYP3A4 enzyme to produce a metabolite, 7-hydroxytrifluoromethylchmarin (7-HFC) emitting fluorescent light.
# The reaction conditions were as follows: substrate, 5.6 μmol/L 7-BFC; pre-reaction time, 0 or 30 minutes; reaction time, 15 minutes; reaction temperature, 25° C. […]
# An enzyme in a K-Pi buffer (pH 7.4) and a solution of a compound of the present invention as a pre-reaction mixture were added to a 96-well plate at the above composition of the pre-reaction, a part of it was transferred to another 96-well plate so that it was 1/10 diluted by a substrate in a K-Pi buffer, NADPH as a co-factor was added to initiate a reaction as an index (without preincubation) and, after a predetermined time of a reaction, acetonitrile/0.5 mol/L Tris (trishydroxyaminomethane)=4/1 (v/v) was added to stop the reaction. […] For the plate on which each index reaction had been performed, a fluorescent value of 7-HFC which is a metabolite was measured with a fluorescent plate reader. […]
# [5] = biological target: T1, human TRPV4; test: Test Example 2' Measurement of TRPV4 inhibitory activity (IC50 value); type: cell-based; details: CHO-K1 cells stably expressing human TRPV4; DMEM 3% FBS, 3000 cells/well; final 0.15 μmol/L 4α-PDD
# Protocol: as §1, §2
# (2) In the day before the experimental day, frozen cell were thawed and washed with the culture medium (DMEM, 3% FBS, 2 mmol/L GlutaMax, 50 unit Penicillin, 50 μg/mL Streptomycin, 0.1 mmol/L Non-Essential Amino Acids, 25 mmol/L HEPES). Then cells were suspended in the culture medium. […] (7) 20 μL/well of diluted compound solution was dispensed to each well in the compound plate, and mixed with built-in Pipette and Mixer of the Fluorescence analysis system FLIPR TETRA (Molecular devices). […] (9) The fluorescent intensity was measured with FLIPR TETRA system for 5 min from the point of time addition the compound solution, at Ex 470-495 nm, Em 515-575 nm wavelength.
# as §3
# (10) In the presence of the compound, the difference between maximal and minimal of fluorescent intensity value for 5 min from just before addition of 4α-PDD solution was calculated, and it was referred as Max−Min value. […] The TRPV4 inhibitory activity of the compound was calculated by the following formula. […]
# T1 sequence (Q9HBA0 whole entry): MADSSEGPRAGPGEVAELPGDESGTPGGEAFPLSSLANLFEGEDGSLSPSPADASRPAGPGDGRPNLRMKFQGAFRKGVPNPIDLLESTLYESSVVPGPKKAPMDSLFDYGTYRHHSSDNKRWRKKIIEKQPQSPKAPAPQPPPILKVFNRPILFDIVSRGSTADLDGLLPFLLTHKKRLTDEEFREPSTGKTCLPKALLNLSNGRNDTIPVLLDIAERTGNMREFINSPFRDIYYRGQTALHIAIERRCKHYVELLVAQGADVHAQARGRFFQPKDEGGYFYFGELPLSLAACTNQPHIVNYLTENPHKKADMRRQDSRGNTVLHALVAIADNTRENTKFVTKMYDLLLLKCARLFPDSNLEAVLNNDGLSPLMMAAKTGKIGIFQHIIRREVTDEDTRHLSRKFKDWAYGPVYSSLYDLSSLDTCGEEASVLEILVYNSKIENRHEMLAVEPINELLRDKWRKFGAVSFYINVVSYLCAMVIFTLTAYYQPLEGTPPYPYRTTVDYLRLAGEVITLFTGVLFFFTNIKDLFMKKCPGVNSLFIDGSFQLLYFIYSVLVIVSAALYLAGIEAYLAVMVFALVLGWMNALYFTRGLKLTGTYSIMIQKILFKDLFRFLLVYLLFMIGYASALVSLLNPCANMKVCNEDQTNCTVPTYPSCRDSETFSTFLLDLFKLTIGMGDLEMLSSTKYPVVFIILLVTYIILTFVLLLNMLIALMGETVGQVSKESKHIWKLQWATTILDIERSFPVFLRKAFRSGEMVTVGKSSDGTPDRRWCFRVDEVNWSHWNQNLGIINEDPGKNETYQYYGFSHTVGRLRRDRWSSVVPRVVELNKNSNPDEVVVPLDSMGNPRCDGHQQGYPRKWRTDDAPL
# T3 sequence (P08684 whole entry): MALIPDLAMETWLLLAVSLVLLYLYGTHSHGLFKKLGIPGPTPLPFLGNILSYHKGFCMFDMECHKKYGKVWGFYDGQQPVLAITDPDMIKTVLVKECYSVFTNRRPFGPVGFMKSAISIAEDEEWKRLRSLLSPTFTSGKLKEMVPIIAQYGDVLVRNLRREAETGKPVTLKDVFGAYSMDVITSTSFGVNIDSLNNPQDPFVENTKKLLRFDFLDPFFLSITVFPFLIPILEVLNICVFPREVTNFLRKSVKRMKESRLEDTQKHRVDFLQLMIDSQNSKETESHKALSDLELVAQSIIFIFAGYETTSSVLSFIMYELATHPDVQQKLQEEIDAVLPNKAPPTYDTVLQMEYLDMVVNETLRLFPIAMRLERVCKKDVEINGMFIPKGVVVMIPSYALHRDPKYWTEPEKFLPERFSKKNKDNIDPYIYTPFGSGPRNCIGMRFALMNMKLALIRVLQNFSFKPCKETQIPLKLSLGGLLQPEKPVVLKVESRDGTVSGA
# T2 sequence (Q12809 whole entry): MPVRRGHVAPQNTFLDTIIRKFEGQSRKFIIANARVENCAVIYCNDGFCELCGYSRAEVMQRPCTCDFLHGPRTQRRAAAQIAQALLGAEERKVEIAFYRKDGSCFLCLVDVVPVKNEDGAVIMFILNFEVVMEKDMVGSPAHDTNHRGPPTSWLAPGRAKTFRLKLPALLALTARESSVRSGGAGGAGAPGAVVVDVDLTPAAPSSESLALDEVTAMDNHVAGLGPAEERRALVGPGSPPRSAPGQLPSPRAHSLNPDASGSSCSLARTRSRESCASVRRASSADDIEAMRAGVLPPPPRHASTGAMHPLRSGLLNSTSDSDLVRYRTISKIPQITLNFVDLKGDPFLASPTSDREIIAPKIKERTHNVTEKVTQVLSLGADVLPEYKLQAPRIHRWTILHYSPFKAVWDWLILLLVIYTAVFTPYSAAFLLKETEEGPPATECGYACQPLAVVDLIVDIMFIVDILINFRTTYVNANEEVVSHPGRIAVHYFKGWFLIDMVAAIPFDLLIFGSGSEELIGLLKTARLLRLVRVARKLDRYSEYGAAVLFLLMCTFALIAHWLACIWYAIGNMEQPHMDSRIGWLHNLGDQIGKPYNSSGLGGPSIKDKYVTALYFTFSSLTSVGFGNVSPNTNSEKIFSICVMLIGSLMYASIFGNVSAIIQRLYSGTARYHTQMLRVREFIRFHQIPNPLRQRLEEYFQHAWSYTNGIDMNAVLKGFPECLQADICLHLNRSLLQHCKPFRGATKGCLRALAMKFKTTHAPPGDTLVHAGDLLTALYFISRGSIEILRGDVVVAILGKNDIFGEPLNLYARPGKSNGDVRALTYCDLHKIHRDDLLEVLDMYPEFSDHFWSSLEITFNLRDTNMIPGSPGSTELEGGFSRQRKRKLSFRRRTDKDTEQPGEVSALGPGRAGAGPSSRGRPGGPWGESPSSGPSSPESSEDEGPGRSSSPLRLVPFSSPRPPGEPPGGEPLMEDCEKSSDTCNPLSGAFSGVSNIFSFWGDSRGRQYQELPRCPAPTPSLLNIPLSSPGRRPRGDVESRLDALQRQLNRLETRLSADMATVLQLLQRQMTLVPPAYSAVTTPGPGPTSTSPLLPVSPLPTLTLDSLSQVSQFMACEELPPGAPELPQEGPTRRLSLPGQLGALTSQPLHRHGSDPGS
SMILES,IC50 [1] [nM],Percent of compound remaining after 30 min incubation [2] [%],hERG % inhibition of tail peak current (IKr) [3] [%],CYP3A4 fluorescent MBI: difference between IC50 values [4],IC50 [5] [nM]
Cc1nc(C)c(-c2csc(Nc3ccc(CNc4ccc(Cl)cc4F)cn3)n2)s1 [Compound I-48],1.2,78.6,8.1,–,–
Cc1nc(C(C)O)sc1-c1csc(Nc2ccc(CNc3ccc(Cl)cc3F)cn2)n1.Cl.Cl (stereo not shown) [Compound I-157],14,83.6,–,"(−) (when the difference is 3 μmol/L or less, this was defined as (−))",–
Cc1nc(C)c(-c2csc(Nc3ccc(C(=O)C4CCCC4)cn3)n2)s1 [Compound I-897],–,–,–,–,2.8
